Assay results taken from patent publication US11331294B2, “Benzoquinone derivative E3330 in combination with chemotherapeutic agents for the treatment of bladder cancer” (Indiana University Research and Technology Corporation, priority 2007, dated 2022).

Columns and labels:
STAT3 = experiment: STAT3-driven luciferase reporter; assay type: cell-based, human; conditions: T24 and UC3 cells induced with IL-6, IC50 concentration, 24 h
Protocol: (§1) FIGS. 36A-36H. […] In cytokine-induced T24 and UC3 cells NFκB-driven luciferase (FIG. 36A), STAT3-driven luciferase (FIG. 36B), and AP-1-driven luciferase (FIG. 36C) were quantified and normalized via Renilla following treatment with the corresponding cell growth-inhibitory IC50 concentrations. T24 cells were treated with APX2009 (8.5 μM) and APX2014 (6.5 μM), and UC3 cells were treated with APX2009 (6.1 μM) and APX2014 (4.6 μM) for 24 h. (*-p<0.05 APX treated vs vehicle, n=4). […] In the panels of FIGS. 36F & 36G, co-expression of survivin and APE1/Ref-1 was analyzed in superficial (FIG. 36F) and invasive human bladder tumors (FIG. 36G) in patients, and found nearly universal overlap of positivity in both in human samples. This was also true in cisplatin-refractory patients from the tissue microarray specimens (FIG. 36H).
(§2) The transcriptional activity of NFκB, STAT3, and AP-1 is under redox control by APE1/Ref-1. Therefore, NFκB, STAT3, or AP-1 transcriptional activity was quantified following treatment with APE1/Ref-1 redox inhibitors (FIGS. 36A-36C).

UC3 cells = experiment: Methylene blue cell growth assay UC3; assay type: cell-based; conditions: Homo sapiens, read-out: cell growth-inhibitory IC50
Protocol: (§3) FIGS. 31A & 31B. Treatment with APE1/Ref-1 inhibitors potently blocks bladder cancer cell proliferation and activated Caspase 3/7. […] The IC50 values for FIG. 31A were determined using the methylene blue assay, n=4. […] T24 and UC3 cells were treated with APX2009 and APX2014 at the IC50 and IC90 and monitored over time for activation of capsase 3/7 by an increase in red fluorescence. Time course graphs are shown in FIG. 31B and representative images at 48 hr are shown in FIG. 32A (described more fully below), n=3-4.
as §1, with “36H). […]” for “36H).”

[1] = tested on: SW780, T24, UC3 cell lines; experiment: Methylene blue cell growth assay, bladder cancer cell panel; assay type: cell-based, human
Protocol: as §3
Bladder cancer cell proliferation was inhibited and apoptosis was induced by potent, selective redox inhibitors of APE1/Ref-1.

sensory neurons = experiment: Ex vivo model of sensory neurons in culture (neurotoxicity); assay type: cell-based
NFκB = experiment: NFκB-driven luciferase reporter; assay type: cell-based, human; conditions: T24 and UC3 cells induced with TNFa, IC50 concentration, 24 h
Protocol: as §1, §2

SF767 glioma cells = experiment: Glioma cell migration (scratch) assay; assay type: cell-based; conditions: 100 μM, 48 h
Protocol: Glioma Cell Migration Assay. APX3330 was tested to determine if it would inhibit the migration ability of SF767 glioma cells. In order to do this, we plated 1.5×10^6 SF767 cells in a 60 mm tissue culture dish and allowed them to attach overnight and form a confluent monolayer. A scratch or wound was made across the plate using a 200 μL pipette tip as described previously (Liang 2007). The cells were then rinsed to remove floating cells and media contain 25, 50, 75 or 100 μM APX3330 or the appropriate vehicle control, DMSO. The drug-containing media was removed after 24 h and fresh media was added Images were taken at three marked places along the scratch at 0, 24, 36 and 48 h after the drug was added. Migration was quantified in ten uniform places for each image taken using Spot Software (Diagnostic Instruments, Sterling Heights, Mich.) to measure the distance in microns between the leading edges of the scratch. Each set of data, a total of thirty for each data point, was normalized to the migration of the vehicle control at 0 h and used to determine standard deviation.

MCF-7 tumor cells = experiment: MTS cell survival assay MCF-7; assay type: cell-based, human; conditions: about 24 or 72 h
Protocol: Decreased cancer cell survival. MCF-7 or OVCAR-3 cells (about 2-4,000) were aliquoted into each well of a 96-well plate in triplicate and allowed to adhere overnight. APX3330 (RN3-3) was added to the cultures. After about 24 or 72 h, about 0.05 mg/mL 3-(4-5-Dimethylthiazol-2-yl)-5-(3-carboxymethoxyphenyl)-2-(4-sulfophenyl)-2H-tetrazolium salt (MTS) reagent was added to each well and incubated at about 37° C. for about 4 h followed by absorbance measurement at 490 nm. The values were standardized to wells containing media alone. […] Similar effects can be seen in multiple myeloma, prostate, non-small cell lung carcinoma, colon, and glioma derived cells.

[2] = tested on: subretinal neovascularization (SNV) in vldlr-/- retina; experiment: SNV in vldlr-/- knockout mice assay; assay type: in vivo; conditions: single intravitreal injection, one week after treatment
Protocol: SNV in vldlr−/− knockout mice assay. […] Experiments were carried out in very-low-density lipoprotein receptor (vldr) knockout mice to determine the effect of APX3330 on inhibition of SNV development in the vldlr−/− mutant. Each animal received a single intravitreal injection of 1 μl volume of BSS as a vehicle control and the fellow eye received 1 μl of […] APX3330. The final concentration of APX3330 was equivalent to approximately 20 μM in the retina. Quantitative measurement of SNV was carried out one week after the treatment in the whole mount retina after lectin-FITC staining. […] The apparent increase of SNV after antibody injection could be due to foreign protein triggered immune response which has been reported before (Tator et al., 2008). APX3330 reduced the number of SNV at a statistically significant level (p<0.01 in paired t-test). […] The Ape1/Ref-1 inhibitor offers a new approach to control angiogenesis for advanced macular degeneration (AMD) treatment.

HL-60 cells = experiment: HL-60 differentiation and apoptosis with retinoic acid; assay type: cell-based
Protocol: APX3330 in combination with Retinoic Acid. […] HL-60 cells were treated with either vehicle (EtOH; control), APX3330, retinoic acid (RA) or APX3330 and RA at the concentrations indicated and morphology determined on day six. Morphological analysis indicated an increase in the differentiation of the HL-60 cells treated with APX3330 (RN3-3).

CCC/C(=C\C1=C(OC)C(=O)c2ccccc2C1=O)C(=O)N(CC)CC [APX2009, [(2E)-2-[(3-methoxy-1,4-dioxo-1,4-dihydronaphthalen-2-yl)methylidene]-N,N-diethylpentanamide]]
STAT3 transcriptional activity (STAT3): significantly blocked
IC50 (UC3 cells): 6.1 µM
fold lower IC50 than APX3330 [1]: 7 fold
neuroprotection against platinum-induced toxicity (sensory neurons): neuroprotective against cisplatin and oxaliplatin-induced toxicity of sensory neurons
reduction of NFκB-driven luciferase activity (NFκB): 2 fold

CCCCCCCCC/C(=C\C1=C(C)C(=O)C(OC)=C(OC)C1=O)C(=O)O [APX3330]
inhibition of migration compared to vehicle control (SF767 glioma cells): 4.0 fold
killing of MCF-7 tumor cells (MCF-7 tumor cells): dose dependently killed
individuals with reduced number of SNV in treated eye [2]: 17/20
reduction of number of SNV [2]: ~30%
increase in cells undergoing apoptosis, APX3330 and RA compared with RA alone (HL-60 cells; 25 μM APX3330, day 6): ~1.5
reduction of RA required for same level of differentiation (CD11) (HL-60 cells; addition of APX3330 to RA): about 1000 fold
cell differentiation in combination with retinoic acid (HL-60 cells; day six, morphology): enhanced the effects of retinoic acid on promoting cell differentiation
HL-60 cells undergoing apoptosis (annexin/PI) at lower doses of RA (HL-60 cells; lower doses of RA): did not significantly enhance the level of HL-60 cells undergoing apoptosis
